These results are taken from paper PMC9523135, “Apamin structure and pharmacology revisited” (Frontiers in Pharmacology, 2022).

One data set deals with E. faecalis. In words: Antimicrobial assay, microtitre broth dilution, E. faecalis. In kind it is cell-based, Enterococcus faecalis ATCC 29212. To be noted: lowest concentration causing 100% growth inhibition; 24 h, 37°C; n = 5. As for the experimental part:
Apamin was tested against Gram-positive (Enterococcus faecalis ATCC 29212, Staphylococcus aureus subsp. aureus ATCC 29213) and Gram-negative bacteria (Escherichia coli ATCC 25922, Pseudomonas aeruginosa ATCC 27853) following the previously described modification of the microtitre broth dilution method ([Vassilevski et al., 2010]). Those bacterial strains were also subjected to the treatment by melittin in the same concentration range to serve as a positive control.
Briefly, bacteria were cultured in a low-salt LB medium. The two-fold microtitre broth dilution assay was carried out in 96-well sterile plates in a final volume of 100 μL. Mid-exponential-phase cultures were diluted to a final concentration of 10^5 colony-forming units·ml^−1. Pure peptides were dissolved in 10 μL of water and added to 90 μL of the bacterial dilution. The samples, a non-treated control and a sterility control were tested in five independent experiments (n = 5). The microtitre plates were incubated for 24 h at 37°C, and growth inhibition was determined by measuring the absorbance at 620 nm. Minimum inhibitory concentration (MIC) is expressed as the lowest concentration of peptide that caused 100% bacterial growth inhibition.

The test system of a further data set is KCa3.1. In words: Patch-clamp, HEK293 cells expressing hKCa3.1 (IK). In kind it is cell-based, human. To be noted: 1 µM TRAM-34. How it is done: (§1) HEK293 cells stably expressing hKCa1.1 (BK, GenBank accession number: NM_002247), hKCa2.1 (SK1, NM_002248), and hKCa3.1 (IK, AH009923) or COS7 cells stably expressing hKCa2.3 (SK3, AJ251016) were generated and cultured as previously described ([Sankaranarayanan et al., 2009]). HEK293 cells stably expressing rKCa2.2 (SK2, NM_019314) were a gift from Dr. Mio Zhang (Chapman University, Irvine).
(§2) All experiments were conducted with an EPC-10 amplifier (HEKA) in the whole-cell configuration with a holding potential of –80 mV. Pipette resistances averaged around 2.5 MΩ. […] Free Ca^2+ concentrations were calculated with MaxChelator (developed by Chris Patton, Stanford University) assuming a temperature of 25°C, pH 7.2, and ionic strength of 160 mM. […] Please note that the provided concentrations are what was weighed in to achieve an initially hyperosmolar solution that was diluted with water to 310 mOsm for the internal and 315 mOsm for the external solution as measured with a VAPRO Vapor pressure osmometer (Wescor). […]
(§3) KCa2 and KCa3.1 currents were elicited by 200-ms voltage ramps from –120 to 40 mV applied every 10 s, and the fold decrease of slope conductance at –80 mV was taken as a measure of apamin-induced channel inhibition. […] KCa1.1 channel activity was recorded with a step protocol, in which cells were stepped to +40 mV for 100 ms at 30-s intervals. […]

A further data set addresses T1, KCa2.1 (Homo sapiens, UniProt Q92952).
T1 construct: expressed in transfected cells
In words: Patch-clamp, HEK293 cells expressing hKCa2.1 (SK1). In kind it is cell-based. To be noted: voltage ramps –120 to 40 mV, slope conductance at –80 mV, 1 μM free Ca^2+ internal; Hill fit, n ≥ 5; 95% CI 3.3–5.0 nM. How it is done: as §1, §2, §3

For the next data set, the system named is KV11.1. In words: Two-electrode voltage-clamp, X. laevis oocytes, hKV11.1 (hERG). In kind it is cell-based, human. The arrangement: key to effect on current: N.E.: no effect at 5 μM concentration. To be noted: 5 μM apamin, n = 5. How it is done:
Linearized plasmids bearing the ion channel genes were transcribed using the mMESSAGE mMACHINE SP6 or T7 transcription kits (Ambion) to prepare the respective cRNA. The harvesting of stage V–VI oocytes from anaesthetized female X. laevis frogs was described previously ([Liman et al., 1992]; [Peigneur et al., 2021]). Oocytes were injected with 50 nL of cRNA at a concentration of 1 ng nl^−1 using a microinjector (Drummond Scientific). The oocytes were incubated at 16°C in ND96 solution containing (in mM): NaCl, 96; KCl, 2; CaCl2, 1.8; MgCl2, 2; and HEPES, 5 (pH 7.4), supplemented with 50 mg l^−1 gentamicin sulfate.
Recordings were performed at room temperature (18°C–22°C) using a Geneclamp 500 amplifier (Molecular Devices) controlled by a pClamp data acquisition system (Axon Instruments). Whole-cell currents from oocytes were recorded 1–4 days after cRNA injection. Bath solution composition was ND96, or HK containing (in mM): NaCl, 2; KCl, 96; CaCl2, 1.8; MgCl2, 2; and HEPES, 5 (pH 7.4). Voltage and current electrodes were filled with 3 M KCl. […]
Currents were evoked by a 100 ms (NaV) or 500 ms (KV) depolarization to the voltage corresponding to the maximal activation of the channels in control conditions from a holding potential of −90 mV. […] TRP currents were measured in ND96 at −90 mV during 400 s. […] Peak current amplitude was measured prior to and following the application of the peptide. […]

The next data set has as its system mice. To be noted: cited from earlier work. An excerpt:
The symptoms are apparently of central origin because the toxicity increases by a factor of 1,000–10,000 and the progression of poisoning is faster in case of i.c.v. injection, but the clinical picture stays the same ([Habermann, 1977], [Habermann, 1984]).

In a further data set the test system is KCa2. To be noted: Kalium database; ref Kuzmenkov et al., 2016; Tabakmakher et al., 2019; cited from earlier work. An excerpt: (§4) According to the Kalium database (https://kaliumdb.org) ([Kuzmenkov et al., 2016]; [Tabakmakher et al., 2019]), six of these substances were identified in scorpion venom (AmP05, maurotoxin, Pi-1, scyllatoxin, tamapin, and Ts9). […] Intere ...

In the next data set the test system is KCa2.2. To be noted: cited from earlier work.
Source text: as §4

≈ marks a conversion by molar mass, not a printed value. Read-outs that look alike come from different tables or passages of the source.

T1 sequence (Q92952 whole entry): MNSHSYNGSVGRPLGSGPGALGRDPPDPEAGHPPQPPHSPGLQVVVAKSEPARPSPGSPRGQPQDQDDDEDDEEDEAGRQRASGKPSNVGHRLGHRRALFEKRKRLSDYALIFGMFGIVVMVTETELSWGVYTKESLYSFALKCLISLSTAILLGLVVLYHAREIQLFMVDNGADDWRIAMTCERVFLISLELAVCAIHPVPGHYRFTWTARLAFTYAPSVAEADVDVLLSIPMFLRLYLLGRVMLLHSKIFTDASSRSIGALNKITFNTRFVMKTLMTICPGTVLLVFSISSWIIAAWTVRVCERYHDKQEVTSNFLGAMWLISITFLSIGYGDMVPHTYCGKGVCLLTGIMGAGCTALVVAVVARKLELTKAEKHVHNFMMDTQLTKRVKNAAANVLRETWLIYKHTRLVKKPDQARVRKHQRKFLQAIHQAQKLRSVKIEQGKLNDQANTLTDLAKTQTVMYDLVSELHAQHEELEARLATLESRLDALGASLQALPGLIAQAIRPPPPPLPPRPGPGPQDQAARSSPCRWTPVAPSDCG

`CC[C@H](C)[C@H](NC(=O)CN)C(=O)NCC(=O)N[C@@H](C)C(=O)N[C@H](C(=O)N[C@@H](CC(C)C)C(=O)N[C@@H](CCCCN)C(=O)N[C@H](C(=O)N[C@@H](CC(C)C)C(=O)N[C@H](C(=O)N[C@H](C(=O)NCC(=O)N[C@@H](CC(C)C)C(=O)N1CCC[C@H]1C(=O)N[C@@H](C)C(=O)N[C@@H](CC(C)C)C(=O)N[C@H](C(=O)N[C@@H](CO)C(=O)N[C@@H](Cc1c[nH]c2ccccc12)C(=O)N[C@H](C(=O)N[C@@H](CCCCN)C(=O)N[C@@H](CCCNC(=N)N)C(=O)N[C@@H](CCCCN)C(=O)N[C@@H](CCCNC(=N)N)C(=O)N[C@@H](CCC(N)=O)C(=O)N[C@@H](CCC(N)=O)C(N)=O)[C@@H](C)CC)[C@@H](C)CC)[C@@H](C)O)[C@@H](C)O)C(C)C)C(C)C` [Melittin]: the minimal inhibitory concentration (MIC) in the data set with E. faecalis was 0.5 µM (≈ 1.42 µg/mL).

With `Clc1ccccc1C(c1ccccc1)(c1ccccc1)n1cccn1` [TRAM-34], the “block of KCa3.1 currents” value in the data set with KCa3.1 is “potently blocked”.

In turn, `CC(C)C[C@@H]1NC(=O)[C@H](C)NC(=O)[C@H]([C@@H](C)O)NC(=O)[C@H](CCC(=O)O)NC(=O)[C@@H]2CCCN2C(=O)[C@H](C)NC(=O)[C@H](CCCCN)NC(=O)[C@@H]2CSSC[C@@H](C(=O)N[C@@H](CCC(N)=O)C(=O)N[C@@H](CCC(N)=O)C(=O)N[C@@H](Cc3cnc[nH]3)C(N)=O)NC(=O)[C@H](CCCNC(=N)N)NC(=O)[C@H](CCCNC(=N)N)NC(=O)[C@H](C)NC(=O)[C@H](CSSC[C@H](N)C(=O)N[C@@H](CC(N)=O)C(=O)N2)NC1=O` [apamin] showed an IC50 at KCa2.1 of 4.1 nM. In addition, in the data set on KV11.1 (mean ± SD), the “current ratio (Iapamin/Icontrol)” value is recorded as 1.07 ± 0.06. Besides, in the data set with KV11.1, the effect on current result is recorded as “N.E”. Also, the “factor of toxicity increase on i.c.v. injection” value with mice (i.c.v. compared with i.v., ref Habermann, 1977, 1984) was 1,000–10,000. In addition, the LD50 entry with mice (i.v., ref Habermann and Reiz, 1965, 1972) is on record as “≈ 4 mg kg^−1”. Further, the “symptoms when injected into mice” value with mice (ref Habermann and Reiz, 1965, 1972) is “muscle spasms, jerks, and convulsions”.

Consider “maurotoxin (VSCTGSKDCYAPCRKQTGCPNAKCINKSCKCYGC; UniProt P80719 1-34, looked up)”, for which the “affinity on KCa2” value in the data set with KCa2 is “high (nanomolar) affinity”.

Consider “scyllatoxin: scorpion toxin from Leiurus quinquestriatus hebraeus (AFCNLRMCQLSCRSLGLLGKCIGDKCECVKH; UniProt P16341 1-31, looked up)”, for which, in the data set with KCa2.2 (ref Shakkottai et al., 2001), the “IC50 range in words” value is “subnanomolar range”. Besides, in the data set on KCa2, the “affinity on KCa2” value is “high (nanomolar) affinity”.

With “tamapin: scorpion toxin from Mesobuthus tamulus (AFCNLRRCELSCRSLGLLGKCIGEECKCVPY; UniProt P59869 1-31, looked up)”, in the data set with KCa2.2 (ref Pedarzani et al., 2002), the “IC50 range in words” value is on record as “subnanomolar range”. Also, in the data set on KCa2, the “affinity on KCa2” value was “high (nanomolar) affinity”.
